Values of other authors as cited in US20090317487A1, “KITS FOR PREVENTION AND TREATMENT OF RHINITIS” (priority 2006, published 2009).

Tested on: infectious rhinitis (common cold)
Conditions: patients; literature studies (Mossad 1996, Prasad 2000, Farr 1987)

Row | Compound | effect on severity and/or duration of infectious rhinitis (common cold)
1 | CC(=O)[O-].CC(=O)[O-].[Zn+2] [zinc acetate] | reduced duration of infection
2 | [Zn] [zinc] | significant effect on the severity and duration of infectious rhinitis
